Source: patent US10653138B2, “Composition for attracting bed bugs” (London School of Hygiene & Tropical Medicine, priority 2015, dated 2020)

Columns and labels:
[1] = system: bed bugs; test: Behavioural bioassay, dose responses of individual chemicals (Example 8); format: in vivo, Cimex lectularius; settings: for dose response: 0.008× to 8000×; for doses on which further synthetic blends should focus: × relative to 8% natural standard (8×=1× standard)
Experimental: Methods: The behavioural bioassay was as described by Weeks et al. 2011 and recorded using EthoVision and the methodology described by Weeks et al. 2013. For each chemical, (E)-2-octenal, (RS)-1-octen-3-ol and nonanal, seven doses were tested from 0.008× to 8000×, along with three controls. Each replicate was completed as a block of 10 treatments including: We are referring here to either 0.001×, 0.01×, 0.1×, 1×, 10×, 100× or 1000× the dose of (E)-2-octenal found naturally in the aggregation pheromone. For instance, an “8% solution” refers to an 8% dose of volatile extract (with the various different ratios of individual component). In each block the order of the treatments and the position of the odour pot were randomized. 10 blocks were completed for each chemical (n=10).

[2] = system: bed bug antennae; test: Coupled gas chromatography-electroantennography (GC-EAG) of volatile extract from bed bug-exposed paper; design: species or system Cimex lectularius; settings: for Electrophysiology Auto method: bullet = marked under the Auto method; for Responses Total: males plus females, 20 insects tested; for Responses Females: number of females giving an EAG response to the peak; for Responses Females / Responses Males: volatile extract 1 μL; for Responses Males: number of males giving an EAG response to the peak; for electroantennogram (EAG) response: result in words; for Visual inspection (no of responses) >5 / Visual inspection (no of responses) >10 / Visual inspection (no of responses) >15: threshold of individuals responding; for Visual inspection (no of responses) Response: total EAG responses, Table 8
Description: Experimental insects, unless otherwise stated, were mated males and females of C. lectularius that had been fed 7 to 14 days previously on heparinised sheep blood. The electrodes used to make recordings were Ag/AgCl wires (diameter 0.37 mm) inserted into glass pipettes, made from borosilicate glass capillaries (outer diameter 2.0 mm; inner diameter 1.16 mm). The glass pipettes were filled with Ringers solution (7.55 g NaCl, 0.64 g KCl, 0.22 g CaCl2, 1.73 g MgCl2 g, 0.86 g NaHCO3 and 0.61 g Na3PO4 L^−1 water). The bed bug was then chilled on ice for one minute before dissection. Preparations were held in a continuous, humidified, charcoal filtered air flow ([…]) coming from a glass tube, which was positioned 5 mm from the antennal preparation. Once the antennal preparation and EAG equipment were in position the microscope light was switched off.
The GC used was a HP-680N, containing a HP-1 column (30 m×0.32 mm; film thickness, 0.52 μm) with a COC injector, hydrogen carrier gas and a FID. The oven temperature was maintained at 40° C. for two min and then programmed at 5° C. min^−1 to 100° C. and then at 10° C. […] to 250° C. The end of the column was inserted into the centre of the main air flow so that the eluent went over the antennal preparation. […] Amplification of the signals was set at ×10,000. Signals were analysed using the computer-based software package, EAD 2000 (Syntech®, The Netherlands). The volatile extract (1 μL) from an air entrainment of bed bug-exposed papers (see Example 1) was injected onto the column. A solution of n-alkanes (C7-C25, 1 μL of 100 ng μL^−1) in hexane was also analysed to calculate the retention indices (RI) of any EAG-active peaks for comparison with GC and coupled GC-MS traces (Equation 1).
Electroantennographic (EAG) responses from the coupled gas chromatography-electroantennographic (GC-EAG) analysis of the volatile extract collected using air entrainment were determined by visual appearance. Coupled GC-EAG traces were examined visually on a light box to identify EAG responses and match them to peaks on the GC traces. A combination of characteristics including the amplitude and shape of the deflection from the baseline were used to identify EAG responses. For example, an EAG response is usually of greater amplitude than the background noise and it has a characteristic negative deflection followed by a quick positive deflection resulting in a short sharp response often of similar shape and position as the corresponding peak on the GC trace. Responses were matched between males and females separately onto master traces for each sex. The EAG-active peaks were labelled from 1 to 21. Male and female master traces were then overlaid to identify where consistent responses occurred in both sexes. Five or more individuals responding at the same retention time on the GC trace was considered to be a consistent EAG response and the corresponding peak on the GC trace was considered to be EAG-active. Three thresholds were used: greater than 5, greater than 10 or greater than 15 individuals responding to the same GC peak or at the same retention time. The traces were then subjected to manual or automated statistical analysis.

[3] = system: bed bugs; test: Behavioural bioassay, refined synthetic blends (Example 9); format: in vivo, Cimex lectularius
Description: The behavioural bioassay was as described by Weeks et al. 2011 and recorded using EthoVision and the methodology described by Weeks et al. 2013. Each replicate was completed as a block of 10 treatments including: • 1. Bed bug-exposed paper (positive control) • 2. Ether (negative control) • 3. Nonanal 80× • 4. E-2-octenal 800× • 5. Nonanal 80× and E-2-octenal 80× (80-80) • 6. Nonanal 80× and E-2-octenal 800× (80-800) • 7. Nonanal 80× and E-2-octenal 8000× (80-8000) • 8. Nonanal 8× and E-2-octenal 800× (8-800) • 9. Nonanal 8× and E-2-octenal 8000× (8-8000) • 10. Nonanal 80×, E-2-octenal 80× and 1-octen-3-ol 80× (80-80-80)
We are referring here to either 1×, 10×, 100× or 1000× the dose of Nonanal or (E)-2-octenal found naturally in the aggregation pheromone. For instance, an “8% solution” refers to an 8% dose of volatile extract (with the various different ratios of individual component).
Therefore, 8× means that it is 1 of standard volatiles, 8×=1× standard, 80×=10× standard and 800×=100× standard. 8000×=1000× standard.
In each block the order of the treatments and the position of the odour pot were randomized. 18 blocks were completed.

[4] = system: bed bugs; settings: volatile components of aggregation pheromone; cited from earlier work

Structure (SMILES)	dose response [1]	doses on which further synthetic blends should focus [1]	Electrophysiology Auto method [2]	Responses Total [2]	Responses Females [2]	Responses Males [2]	electroantennogram (EAG) response [2]	Visual inspection (no of responses) >5 [2]	Visual inspection (no of responses) >10 [2]	Visual inspection (no of responses) >15 [2]	Visual inspection (no of responses) Response [2]	zone duration compared to zero ([3]; nonanal 80)	attraction of bed bugs to safe shelters [4]	time spent over the odour pot compared with blends ([3]; (E)-2-octenal 800 treatment)
CCCCCCCCC=O [Nonanal, nonanal]	clear dose response was observed	8-80 ×	•	17	9	8	EAG-active	• (>5)	• (>10)	• (>15)	17	significantly greater in time spent above the odour pot in the odour zone		
CCCCC/C=C/C=O (single isomer, unassigned) [(E)-2-octenal]	clear dose response was observed	800-8000 ×	•	16	8	8	EAG-active	• (>5)	• (>10)	• (>15)	16		attract bed bugs to safe shelters	significantly lower in time spent over the odour pot than 80-800 and 8-800
